Results: patent publication US20210330611A1, “THERAPY FOR NEUROLOGICAL DISEASES/DISORDERS” (priority 2020, published 2021)
Counter-ions that a name gives are not always drawn. Like-named read-outs stand apart in the source and are kept apart here.

Key:
[1] = system: fibrin-induced microglia activation; assay: Image-based assay of fibrin-induced microglia activation (HTS and dose response); assay type: cell-based, rat; conditions: for IC50 / inhibition at 10 µM: Rattus norvegicus, Microglia; for inhibition at 10 µM: primary microglia HTS, fibrin stimulation, increased cell size (>800 μm^2) as marker of activation, read-out: Fibrin % inhibition
[2] = system: LPS-induced microglia activation; assay: Image-based assay of LPS-induced microglia activation (HTS and dose response); assay type: cell-based, rat; conditions: Rattus norvegicus, Microglia; for inhibition at 10 µM: primary microglia HTS, LPS stimulation, increased cell size (>800 μm^2) as marker of activation, read-out: LPS % inhibition
[3] = system: fibrin- and LPS-induced microglia activation; assay: cells; assay type: cell-based, rat; conditions: for inhibition at 10 µM: Rattus norvegicus
in vitro [4] = conditions: rat, Cell Toxicity IC50 (uM) [cFib assay]
in vitro [5] = conditions: rat
primary rat microglia [6] = assay: Cell toxicity (dead cells, size <150 μm2) in LPS assay; conditions: for LPS % cell toxicity: primary microglia HTS, LPS stimulation, decreased size (<150 μm^2) as marker of toxicity; for IC50: read-out: Cell Toxicity IC50 (uM) [LPS assay], LPS assay
primary rat microglia [7] = assay: Cell toxicity (dead cells, size <150 μm2) in coated fibrin (cFib) assay; conditions: primary microglia HTS, fibrin stimulation; decreased size (<150 μm^2) as marker of toxicity;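 on Fibrin % cell toxicity: share of dead cells sized under 150 µm2 at 10 µM in fibrin-stimulated microglia HTS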
[8] = 48 h, Table 1, dose response 0.001-20 μM, triplicates, primary rat microglia, 48 h, read-out: Fibrin IC50
[9] = dose response, fibrin-induced microglia activation, read-out: Fibrin IC50
[10] = fibrin-induced microglia activation, dose response, read-out: Fibrin IC50 (uM) (Suppl. Table 7)
[11] = 48 h, Table 1, dose response 0.001-20 μM, triplicates, primary rat microglia, 48 h, read-out: LPS IC50
[12] = LPS-induced microglia activation, dose response, read-out: LPS IC50 (uM) (Suppl. Table 7)
[13] = dose response, LPS-induced microglia activation, read-out: LPS IC50
[14] = HTS of 1907 compounds, quadrant by fibrin and LPS inhibition
[15] = Microglia, HTS hit classification, read-out: Hit
[16] = quadrant by fibrin and LPS inhibition in HTS of 1907 compounds
[17] = Table 3, read-out: Fibrin IC50 (uM) (Suppl. Table 7)
[18] = Table 6, read-out: Fibrin IC50 (uM) (Suppl. Table 7)
[19] = Table 3, read-out: LPS IC50 (uM) (Suppl. Table 7)
[20] = Table 6, read-out: LPS IC50 (uM) (Suppl. Table 7)
[21] = Microglia, Table 3, read-out: Cherry-picked Hit (Suppl. Table 7)

Structure (SMILES): Clc1ccc(C(OCCN2CCCCC2)c2ccccc2)cc1 (centres unmarked) [Cloperastine hydrochloride, reference compound]
- IC50 [1, 8]: 7 µM
- IC50 [1, 9]: 7 µM
- IC50 [1, 10]: 7 µM
- inhibition at 10 µM [1]: 64%
- IC50 [2, 11]: 9 µM
- inhibition at 10 µM ([2]; 48 h): 44%
- IC50 [2, 12]: 9 µM
- IC50 [2, 13]: 9 µM
- Quadrant (FIG. 5b) [3, 14]: Q3
- inhibition at 10 µM [3, 15]: > 50%
- inhibition at 10 µM ([3]; hit classification in microglia HTS, read-out: Cherry-picked Hit (Suppl. Table 7)): > 50%
- Quadrant (FIG. 5b) ([3]; Table 1, screen at 10 μM): Q3
- Quadrant (FIG. 5b) [3, 16]: Q3
- IC50 (in vitro [4]; cFib assay): > 20 µM
- IC50 (in vitro [5]): > 20 µM
- LPS % cell toxicity (primary rat microglia [6]): 0%
- Fibrin % cell toxicity (primary rat microglia [7]): 2%

Structure (SMILES): CC(=O)OCC(=O)[C@@]12N=C(C)O[C@@H]1C[C@H]1[C@@H]3CCC4=CC(=O)C=C[C@]4(C)[C@H]3[C@@H](O)C[C@@]12C [Deflazacort, reference compound]
- Fibrin Selectivity [1]: 42
- Fibrin Selectivity (LOG10) [1]: 1.63
- IC50 [1, 8]: < 0.001 µM
- IC50 [1, 17]: < 0.001 µM
- IC50 [1, 18]: < 0.001 µM
- IC50 [1, 9]: < 0.001 µM
- IC50 [1, 10]: < 0.001 µM
- inhibition at 10 µM [1]: 111%
- Fibrin Selectivity (LOG10) ([1]; fibrin vs LPS, LOG10, Table 6): 1.63
- Fibrin Selectivity ([1]; fibrin vs LPS, Table 6): 42
- IC50 [2, 11]: 0.04 µM
- inhibition at 10 µM ([2]; 48 h): 105%
- IC50 [2, 12]: 0.04 µM
- IC50 [2, 19]: 0.04 µM
- IC50 [2, 20]: 0.04 µM
- IC50 [2, 13]: 0.04 µM
- Quadrant (FIG. 5b) [3, 14]: Q2
- inhibition at 10 µM [3, 21]: > 50%
- inhibition at 10 µM [3, 15]: > 50%
- Quadrant (FIG. 5b) ([3]; Table 1, screen at 10 μM): Q2
- Quadrant (FIG. 5b) ([3]; Table 3, screen at 10 μM): Q2
- Quadrant (FIG. 5b) ([3]; microglia HTS, Table 6): Q2
- Quadrant (FIG. 5b) [3, 16]: Q2
- IC50 (in vitro [4]; Table 3): 20 µM
- IC50 (in vitro [4]; cFib assay): 20 µM
- IC50 (in vitro [4]; cFib assay, Table 6): ≥ 20 µM
- IC50 (in vitro [5]): > 20 µM
- LPS % cell toxicity (primary rat microglia [6]): 4%
- IC50 (primary rat microglia [6]): > 20 µM
- IC50 (primary rat microglia [6]; Table 6): > 20 µM
- Fibrin % cell toxicity (primary rat microglia [7]): 2%

Structure (SMILES): CN(C)[C@@H]1C(O)=C(C(N)=O)C(=O)[C@@]2(O)C(O)=C3C(=O)c4c(O)ccc(Cl)c4[C@@H](O)[C@H]3C[C@@H]12 [Demeclocycline hydrochloride, reference compound]
- Fibrin Selectivity [1]: 2
- Fibrin Selectivity (LOG10) [1]: 0.38
- IC50 [1, 8]: 6 µM
- IC50 [1, 17]: 6 µM
- IC50 [1, 9]: 6 µM
- IC50 [1, 10]: 6 µM
- inhibition at 10 µM [1]: 75%
- IC50 [2, 11]: 15 µM
- inhibition at 10 µM ([2]; 48 h): 31%
- IC50 [2, 12]: 15 µM
- IC50 [2, 19]: 15 µM
- IC50 [2, 13]: 15 µM
- Quadrant (FIG. 5b) [3, 14]: Q3
- inhibition at 10 µM [3, 21]: > 50%
- inhibition at 10 µM [3, 15]: > 50%
- Quadrant (FIG. 5b) ([3]; Table 1, screen at 10 μM): Q3
- Quadrant (FIG. 5b) ([3]; Table 3, screen at 10 μM): Q3
- Quadrant (FIG. 5b) [3, 16]: Q3
- IC50 (in vitro [4]; Table 3): > 20 µM
- IC50 (in vitro [4]; cFib assay): > 20 µM
- IC50 (in vitro [5]): > 20 µM
- LPS % cell toxicity (primary rat microglia [6]): 1%
- IC50 (primary rat microglia [6]): > 20 µM
- Fibrin % cell toxicity (primary rat microglia [7]): 1%

Structure (SMILES): CC(=O)OCC(=O)[C@H]1CC[C@H]2[C@@H]3CCC4=CC(=O)CC[C@]4(C)[C@H]3CC[C@]12C [Desoxycorticosterone acetate, reference compound]
- Fibrin Selectivity [1]: 10
- Fibrin Selectivity (LOG10) [1]: 0.98
- IC50 [1, 8]: 0.5 µM
- IC50 [1, 17]: 0.5 µM
- IC50 [1, 9]: 0.5 µM
- IC50 [1, 10]: 0.5 µM
- inhibition at 10 µM [1]: 83%
- IC50 [2, 11]: 5 µM
- inhibition at 10 µM ([2]; 48 h): 47%
- IC50 [2, 12]: 5 µM
- IC50 [2, 19]: 5 µM
- IC50 [2, 13]: 5 µM
- Quadrant (FIG. 5b) [3, 14]: Q3
- inhibition at 10 µM [3, 21]: > 50%
- inhibition at 10 µM [3, 15]: > 50%
- Quadrant (FIG. 5b) ([3]; Table 1, screen at 10 μM): Q3
- Quadrant (FIG. 5b) ([3]; Table 3, screen at 10 μM): Q3
- Quadrant (FIG. 5b) [3, 16]: Q3
- IC50 (in vitro [4]; Table 3): > 20 µM
- IC50 (in vitro [4]; cFib assay): > 20 µM
- IC50 (in vitro [5]): > 20 µM
- LPS % cell toxicity (primary rat microglia [6]): 1%
- IC50 (primary rat microglia [6]): > 20 µM
- Fibrin % cell toxicity (primary rat microglia [7]): 1%

Structure (SMILES): CC(=O)OCC(=O)[C@@]1(O)CC[C@H]2[C@@H]3CCC4=CC(=O)C=C[C@]4(C)[C@@]3(Cl)[C@@H](Cl)C[C@@]21C [Dichlorisone acetate, reference compound]
- Fibrin Selectivity [1]: 169
- Fibrin Selectivity (LOG10) [1]: 2.23
- IC50 [1, 8]: 0.03 µM
- IC50 [1, 17]: 0.03 µM
- IC50 [1, 18]: 0.03 µM
- IC50 [1, 9]: 0.03 µM
- IC50 [1, 10]: 0.03 µM
- inhibition at 10 µM [1]: 108%
- IC50 [2, 11]: 4 µM
- inhibition at 10 µM ([2]; 48 h): 74%
- IC50 [2, 12]: 4 µM
- IC50 [2, 19]: 4 µM
- IC50 [2, 20]: 4 µM
- IC50 [2, 13]: 4 µM
- Quadrant (FIG. 5b) [3, 14]: Q2
- inhibition at 10 µM [3, 21]: > 50%
- inhibition at 10 µM [3, 15]: > 50%
- Quadrant (FIG. 5b) ([3]; Table 1, screen at 10 μM): Q2
- Quadrant (FIG. 5b) ([3]; Table 3, screen at 10 μM): Q2
- Quadrant (FIG. 5b) ([3]; microglia HTS, Table 6): Q2
- Quadrant (FIG. 5b) [3, 16]: Q2
- IC50 (in vitro [4]; Table 3): > 20 µM
- IC50 (in vitro [4]; cFib assay): > 20 µM
- IC50 (in vitro [4]; cFib assay, Table 6): > 20 µM
- IC50 (in vitro [5]): > 20 µM
- LPS % cell toxicity (primary rat microglia [6]): 1%
- IC50 (primary rat microglia [6]): > 20 µM
- IC50 (primary rat microglia [6]; Table 6): > 20 µM
- Fibrin % cell toxicity (primary rat microglia [7]): 3%
